From patent US4273704A, “N-Adamantane-substituted tetrapeptide amides” (G. D. Searle & Co., priority 1979, dated 1981)

Tested on: phenyl-p-benzoquinone-induced writhing
Test: mouse phenyl-p-benzoquinone-induced writhing test (analgesic activity)
Assay type: in vivo
Settings: s.c.; 60 minutes; male CD-1 mice; dose which decreased writhing by ≥50% of control mean in 50% of the mice
Description: This test is a modification of the procedure described by L. C. Hendershot and J. Forsaith, in J. PHARMACOL. EXP. THER., 125:237(1959).
Details of the test are as follows: Groups of 10 male CD-1 mice (Charles River) weighing 18-25 g. are pretreated subcutaneously (s.c.) or intragastrically (i.g.) with the vehicle control or the compound of interest in a volume of 10 ml/kg. Phenyl-p-benzoquinone (PBQ), 2.5 mg/kg is administered intraperitoneally (i.p.) 30 or 60 minutes later as a 0.025% solution in 5% ethanol. Starting 5 minutes after the PBQ challenge, each mouse is observed for a 10 minute period during which the number of writhes are counted. A "writhe" consists of a combination or sequence of arching the back, pelvic rotation, and hind limb extension. Significant analgesia is assumed when an animal writhing frequency is ≤50% of the daily control group mean. Estimates of the ED50 defined as the dose which decreased writhing by ≥50% of the control group mean in 50% of the mice are determined using the method of J. T. Litchfield and F. Wilcoxon, J. PHARMCOL. EXP. THER., 96:99(1949).

Compound: CN1CC[C@]23c4c5ccc(O)c4O[C@H]2[C@@H](O)C=C[C@H]3[C@H]1C5 [morphine]
- ED50 (95% confidence limits): 0.1 mpk
